Source: patent US20220281846A1, “COMPOUNDS AND COMPOSITIONS FOR THE TREATMENT OF RESPIRATORY DISEASES” (THE UNIVERSITY OF MELBOURNE, priority 2018, published 2022)
Several values for one entry are separate records, joined by “and”; a condition that tells them apart may be missing. Equal entries are not always repeated. Marks after values point to notes of the source that are not given here.

Experiments:
[1] = In vitro metabolic stability, human liver microsomes; format: in vitro ADME
Experimental: Human Microsomal Stability of Compounds of the Invention
In Vitro Metabolic Stability
Incubation: The metabolic stability assay was performed by incubating each test compound in human liver microsomes at 37° C. and a protein concentration of 0.4 mg/mL. The metabolic reaction was initiated by the addition of an NADPH-regenerating system and quenched at various time points over a 60 minute incubation period by the addition of acetonitrile containing diazepam as internal standard. Control samples (containing no NADPH) were included (and quenched at 2, 30 and 60 minutes) to monitor for potential degradation in the absence of cofactor. The human liver microsomes used in this experiment were supplied by XenoTech, lot #1410230. Microsomal incubations were performed at a substrate concentration of 1 μM. Data analysis: Species scaling factors from Ring et al. (2011) JPharmSci, 100:4090-4110 were used to convert the in vitro CLint (μL/min/mg) to an in vivo CLint(mL/min/kg). Hepatic blood clearance and the corresponding hepatic extraction ratio (EH) were calculated using the well stirred model of hepatic extraction in each species, according to the “in vitro T1/2” approach described in Obach (1999) DrugMetab. Dispos. 27:1350-1359. The EH was then used to classify compounds as low(<0.3), intermediate (0.3-0.7), high (0.7-0.95) or very high (>0.95) extraction compounds. Predicted in vivo clearance values have not been corrected for microsomal or plasma protein binding. Species scaling calculations are based on two assumptions: 1) NADPH-dependent oxidative metabolism predominates over other metabolic routes (i.e. direct conjugative metabolism, reduction, hydrolysis, etc.), and; 2) rates of metabolism and enzyme activities in vitro are truly reflective of those that exist in vivo. If significant non-NADPH-mediated degradation is observed in microsome control samples, then assumption (1) is invalid and predicted clearance parameters are therefore not reported.

[2] = Mouse pharmacokinetics, IV and oral administration; format: in vivo; conditions: male C57BL/6 mice
Experimental: PF670462 (2HCl.0.4 mol. eq. isopropanol) and ZH3-138 (unionised) were administered to male C57BL/6 mice by IV (3 mg/kg) or orally (10 mg/kg). IV administration was achieved by bolus injection into the tail vein of mice using 1 mL syringe with 25G×1″ needle at a volume of 3 mL/kg. Oral administration was achieved by gavage needle at a volume of 3 mL/kg.
Intravenous (IV) and oral formulations were prepared using the same method. On the day of dosing, each of the solid compound was dissolved in DMSO to which an aqueous solution containing 10% Captisol was added. Hydrochloric acid (1 M) was used to modify pH for the formulation of ZH3-138 with the purpose of solubilising the compound (see Section B for the final pH of each formulation). The formulations of each compound were thoroughly vortexed, producing colourless solutions for all three compounds.
The systemic exposure of PF670462 and ZH3-138 was studied in non-fasted male C57BL/6 mice weighing 19.8-26.8 g. Mice had access to food and water ad libitum throughout the pre- and post-dose sampling period.
Compounds were dosed to mice by bolus injection into the lateral tail vein (3 mL/kg) for IV administration and by gavage (3 mL/kg) for oral administration. Following IV and oral administration, blood samples were collected up to 24 h (n=3 mice per time point) with a maximum of three samples from each mouse. Samples were collected via submandibular bleed (approximately 120 μL; conscious sampling). No urine samples were collected as mice were housed in bedded cages.
Blood was collected into polypropylene Eppendorf tubes containing heparin as anticoagulant and stabilisation cocktail (containing Complete® (a protease inhibitor cocktail) and potassium fluoride) to minimise the potential for ex vivo compound degradation in blood/plasma samples.
Once collected, blood samples were centrifuged immediately, supernatant plasma was removed, and stored at −80° C. until analysis by LC-MS.
Plasma samples were quantified against calibration standards prepared by spiking blank mouse plasma (50 μL) with solution standards (10 μL) obtained by diluting a stock solution of test compound (1 mg/mL in DMSO) with 50% acetonitrile in water. Diazepam (10 μL of 5 μg/mL in 50% acetonitrile/water) was added to all plasma calibration standards and samples as an internal standard (IS). The extraction of the test compound and IS from plasma was conducted using protein precipitation with acetonitrile. Protein precipitation was carried out by the addition of acetonitrile followed by vortexing and centrifugation (10,000 rpm) for 3 minutes to obtain supernatant for analysis using the LC-MS conditions described in Table 7.

## Nc1nccc(-c2c(-c3ccc(F)cc3)ncn2C2CCCCC2)n1 [PF670462, reference compound]
[1]; human liver microsomes
  Predicted EH (hepatic extraction ratio): 0.88
[1]; human liver microsomes, 1 μM
  CLint, in vitro: 192 μL/min/mg protein
[1]; human liver microsomes, 1 μM, 0.4 mg/mL protein, 37° C.
  T1/2: 9 min
[1]; scaled from human liver microsomes
  Predicted CLint, in vivo: 158 mL/min/kg
[1]; scaled from human liver microsomes, well stirred model
  Predicted CLblood: 18 mL/min/kg
[2]
  apparent blood clearance: moderate
  apparent blood volume of distribution: moderate
[2]; 24 h sampling period
  time post-dose for which plasma concentration was measurable (above LLQ): up to 4 h
[2]; IV 2.42 mg/kg, 0.017 h
  Plasma Concentration, Mean: 15500 nM
[2]; IV 2.42 mg/kg, 0.017 h, 2.42 mg/kg
  Plasma Concentration, Individual: 18.4 µM and 10.9 µM and 17.3 µM
[2]; IV 2.42 mg/kg, 0.033 h
  Plasma Concentration, Mean: 8140 nM
[2]; IV 2.42 mg/kg, 0.033 h, 2.42 mg/kg
  Plasma Concentration, Individual: 8.83 µM and 8.03 µM and 7.57 µM
[2]; IV 2.42 mg/kg, 0.083 h
  Plasma Concentration, Mean: 6090 nM
[2]; IV 2.42 mg/kg, 0.083 h, 2.42 mg/kg
  Plasma Concentration, Individual: 5.58 µM and 5.99 µM and 6.70 µM
[2]; IV 2.42 mg/kg, 0.25 h
  Plasma Concentration, Mean: 2480 nM
[2]; IV 2.42 mg/kg, 0.25 h, 2.42 mg/kg
  Plasma Concentration, Individual: 2.38 µM and 2.32 µM and 2.75 µM
[2]; IV 2.42 mg/kg, 0.5 h
  Plasma Concentration, Mean: 851 nM
[2]; IV 2.42 mg/kg, 0.5 h, 2.42 mg/kg
  Plasma Concentration, Individual: 0.900 µM and 0.566 µM and 1.09 µM
[2]; IV 2.42 mg/kg, 1.0 h
  Plasma Concentration, Mean: 190 nM
[2]; IV 2.42 mg/kg, 1.0 h, 2.42 mg/kg
  Plasma Concentration, Individual: 0.193 µM and 0.165 µM and 0.212 µM
[2]; IV 2.42 mg/kg, 2.0 h
  Plasma Concentration, Mean: 253 nM
[2]; IV 2.42 mg/kg, 2.0 h, 2.42 mg/kg
  Plasma Concentration, Individual: 0.0263 µM and 0.0207 µM and 0.0290 µM
[2]; IV 2.42 mg/kg, 4.0 h
  Plasma Concentration, Mean: 2.09 nM
[2]; IV 2.42 mg/kg, 4.0 h, values only marginally below the LLQ, 2.42 mg/kg
  Plasma Concentration, Individual: 0.00222 ^a μM and 0.00134 ^a μM and 0.0027 ^a μM
[2]; oral 10.1 mg/kg, 0.25 h
  Plasma Concentration, Mean: 1250 nM
[2]; oral 10.1 mg/kg, 0.25 h, 10.1 mg/kg
  Plasma Concentration, Individual: 1.45 µM and 0.873 µM and 1.44 µM
[2]; oral 10.1 mg/kg, 0.50 h
  Plasma Concentration, Mean: 941 nM
[2]; oral 10.1 mg/kg, 0.50 h, 10.1 mg/kg
  Plasma Concentration, Individual: 1.95 µM and 0.508 µM and 0.366 µM
[2]; oral 10.1 mg/kg, 1.0 h
  Plasma Concentration, Mean: 292 nM
[2]; oral 10.1 mg/kg, 1.0 h, 10.1 mg/kg
  Plasma Concentration, Individual: 0.260 µM and 0.340 µM and 0.277 µM
[2]; oral 10.1 mg/kg, 2.0 h
  Plasma Concentration, Mean: 103 nM
[2]; oral 10.1 mg/kg, 2.0 h, 10.1 mg/kg
  Plasma Concentration, Individual: 0.140 µM and 0.0641 µM and 0.104 µM
[2]; oral 10.1 mg/kg, 4.0 h
  Plasma Concentration, Mean: 16.5 nM
[2]; oral 10.1 mg/kg, 4.0 h, 10.1 mg/kg
  Plasma Concentration, Individual: 0.0318 µM and 0.0106 µM and 0.00703 µM
[2]; plasma
  apparent half-life: approximately 0.5 h
